Test results as given in patent US20220110902A1, “Methods of treating amyloid-beta peptide diseases” (Ecole Polytechnique Federale de Lausanne, priority 2016, published 2022).
“Also recorded” adds a separate entry of the source.

Tests used:
[1] = test system: CL2122 worms; experiment: Mobility of CL2122 control worms; format: in vivo, C. elegans; details: CL2122, day 1 to 4 and day 8 of adulthood; NR 1 mM, AZD 0.3 μM
Method: (§1) Doxycycline was obtained from Sigma-Aldrich and dissolved in water. For experiments, a final concentration of 15 μg/mL was used. Olaparib (AZD2281) was dissolved in DMSO to experimental concentrations of 300 nM. Nicotinamide Riboside triflate (NR) was custom synthesized by Novalix (www.novalix-pharma.com/) and dissolved in water, and used at a final concentration of 1 mM. Compounds were added just before pouring the plates. For phenotyping experiments, parental F0 L4 worms were allowed to reach adulthood and lay eggs on the treatment plates. The deriving F1 worms were therefore exposed to compounds during the full life from eggs until death. For RNA analysis experiments, synchronized L1 worms were exposed to the compounds until harvest. To ensure a permanent exposure to the compound, plates were changed twice a week.
(§2) Mobility: C. elegans movement analysis was performed as described, starting from day 1 of adulthood, using the Movement Tracker software. The experiments were repeated at least twice.

[2] = test system: GMC101 worms; experiment: Worm phenotypic assays in GMC101: mobility, paralysis and death score; format: in vivo, C. elegans; details: for fitness/healthspan and lifespan (mobility, paralysis, death): GMC101, mobility from day 1 of adulthood, paralysis and death at day 8, dox 15 μg/mL, AZD 300 nM
Method: as §1, §2
Paralysis and death score: 5 L4 worms per condition were allowed to reach adulthood and lay eggs on the treatment plates. 45 to 60 deriving F1 worms per condition were manually scored for paralysis after poking, as already described. Worms that were unable to respond to any, repeated stimulation, were scored as dead. Results are representative of the data obtained in at least three independent experiments.
(§3) During the assays, animals were exposed to Myriocin (dissolved in DMSO) from the egg stage on plates seeded with live HT115 E. coli bacteria. Control plates seeded with the same bacteria were prepared with the corresponding concentrations of DMSO. The day of the experiment (day 1 of adulthood, 3 days after hatching), the GMC101 population was shifted to 25° C. in order to induce the amyloid deposition in the body wall muscle. ˜1000 worms were used for western blotting assays.
C. elegans movement analysis was performed as described (Mouchiroud et al., 2016), using the Movement Tracker software. ˜50 adult worms were used per condition for movement assays.
To score for paralysis and death, 50 worms per condition were manually scored after poking as described (McCool et al., 2012; Florez-McClure et al., 2007). Worms that were unable to respond to repeated stimulation were scored as dead.
as §3, with “the compound UA” for “Myriocin (dissolved in DMSO)”, “from” for “from the”, “DMSO (0.1%).” for “DMSO.”, “˜50 adult” for “˜1000”, “per conditions.” for “for western blotting assays.”
C. elegans movement analysis was performed as described in (Mouchiroud et al., 2016), using the Movement Tracker software within a period of 4 days.

[3] = test system: SH-SY5Y neuroblastoma cell line expressing the APP Swedish K670N/M671L double mutation (APPSwe); experiment: Immunostaining of intracellular Aβ deposits in APPSwe SH-SY5Y cells; format: cell-based, human
Method: The SH-SY5Y neuroblastoma cell line expressing the APP Swedish K670N/M671L double mutation (APPSwe) was a kind gift of Prof. Cedazo-Minguez (Karolinska Institute, Sweden). Cells were grown in DMEM/F-12, supplemented with 10% fetal bovine serum (FBS, Gibco), GlutaMAX (100×, Gibco) and penicillin/streptomycin (1×, Gibco). Cells were selected in 4 μg/mL Geneticin® Selective Antibiotic (G418 Sulfate, Sigma) and grown for three generations before experiments with cells plated and passaged at 4×10^3 cells/ml and 60% confluence, respectively. Cells were cultured at 37° C. under a 5% CO2 atmosphere and tested for mycoplasma using Mycoprobe (#CUL001B, R&D systems) following the manufacturer's instructions. Cells were treated with 10 μg/mL dox, NR 1 or 3 mM, ISRIB 0.5 μM (Sigma), as indicated for 24 hours before cell harvesting or fixation. For the immunostaining, cells were fixed with 1× Formal-Fixx (Thermo Scientific) for 15 min. After 15 min permeabilization with 0.1% Triton X-100, cells were blocked in PBS supplemented with 5% fetal bovine serum for 1 hour and immunostained overnight, at 4° C., with the anti-β-Amyloid 1-42 (1:100, Millipore AB5078P). The secondary antibody was coupled to the Alexa-488 fluorochrome (Thermo Scientific), and nuclei were stained with DAPI (Invitrogen, D1306). After washing in PBS, cell slides were mounted with Dako mounting medium (Dako, S3023) and examined with a Zeiss LSM 700 confocal microscope (Carl Zeiss MicroImaging) equipped with a Plan-Apochromat 40×/1.3 NA oil immersion objective lens using a 488 nm laser. Laser power was set at the lowest intensity allowing clear visualization of the signal. Imaging settings were maintained with the same parameters for comparison between different experimental conditions.
The SH-SY5Y neuroblastoma cell line expresses the APP Swedish K670N/M671L double mutation (APPSwe) (Zheng et al., 2011) and accumulates intracellular Aβ amyloid aggregates. Cells were grown in DMEM/F-12, supplemented with 10% fetal bovine serum (FBS, Gibco), GlutaMAX (100×, Gibco) and penicillin/streptomycin (1×, Gibco). Cells were selected in 4 μg/mL Geneticin® Selective Antibiotic (G418 Sulfate, Sigma) and grown for three generations before experiments with cells plated and passaged at 4×10{right arrow over ( )}3 cells/ml and 60% confluence, respectively. Cells were cultured at 37° C. under a 5% CO2 atmosphere and tested for mycoplasma using Mycoprobe (#CUL001B, R&D systems), following the manufacturer's instructions. Myriocin was dissolved in DMSO.
Cells were treated with 10 uM Myriocin and Fumonisin B1 for 24 hours before harvesting or fixation (FIG. 3A). For immunostaining, cells were fixed with 1× Formal-Fixx (Thermo Scientific) for 15 min. […]

Compound	fitness (mobility) of control strain [1]	fitness/healthspan and lifespan (mobility, paralysis, death) ([2]; NR 1 mM)	intracellular Aβ deposits ([3]; 10 uM, 24 hours)	paralysis and death (survival) ([2]; GMC101, day 4 of adulthood, Myriocin 10 uM)	spontaneous movement (mobility) ([2]; GMC101, period of 4 days, Myriocin 10 uM)	intracellular Aβ deposits (anti-β-Amyloid 1-42 immunodetection) ([3]; 24 h, dox 10 μg/mL, NR 3 mM)	health- and life-span upon sir-2.1 RNAi ([2]; GMC101 fed with sir-2.1 RNAi, NR 1 mM)	dependence of motility and Aβ clearance benefits on atfs-1 ([2]; GMC101 upon atfs-1 RNAi feeding)	dependence of health-, lifespan and proteostasis benefits on dct-1 ([2]; GMC101 upon dct-1 RNAi feeding)
O=C(c1cc(Cc2n[nH]c(=O)c3ccccc23)ccc1F)N1CCN(C(=O)C2CC2)CC1 [AZD, Olaparib, reference compound]	only improved CL2122 fitness during aging	improved healthspan and lifespan							
CCCCCCC(=O)CCCCCC/C=C/C[C@@H](O)[C@H](O)[C@@](N)(CO)C(=O)O [Myriocin, (E,2S,3R,4R)-2-amino-3,4-dihydroxy-2-(hydroxymethyl)-14-oxoicos-6-enoic acid]			significantly reduced; also recorded: markedly reduced	decreased both paralysis and death; also recorded: improves the paralysis score and survival	increased the mobility; also recorded: increase in spontaneous movement				
NC(=O)c1ccc[n+]([C@@H]2O[C@H](CO)[C@@H](O)[C@H]2O)c1 [NR, Nicotinamide Riboside triflate]	only improved CL2122 fitness during aging	improved healthspan and lifespan				remarkable reduction	still significantly rescued health- and life-span	required	required
